One molecule from ChEMBL document CHEMBL5126595, “Identification and anti-tumor evaluation of 3-acyl-indol-based 2,4-diarylaminopyrimidine analogues as potent ALK inhibitors capable of overcoming drug-resistant mutants” (Eur J Med Chem, 2022) can be followed below.

The source made the active and inactive calls. No cut-off for these calls is given here.

The test system of data set [1] is NCI-H2228. Description: Induction of apoptosis in human NCI-H2228 cells assessed as late apoptotic cells at 50 nM incubated for 48 hrs by AnnexinV-FITC/propidium iodide staining based flow cytometry analysis (reference value: 4.72 %). The format is functional.
Data set [2] in a line: AUC (0 to t) in Sprague-Dawley rat at 10 mg/kg, po by LC-MS/MS analysis. The data set is classed as ADME, organism-based. The arrangement: dose 10 mg/kg, route po. To be noted: in vivo.
Data set [3] in a line: Antiproliferative activity against human HEK293T cells assessed as inhibition of cell growth incubated for 72 hrs by MTT assay. The data set is classed as toxicity, cell-based, HEK-293T. A general note: Formazan colour is commonly taken as a measure of viable cells.
Data set [4] deals with NCI-H2228. Description: Inhibition of colony formation in human NCI-H2228 cells assessed as reduction in colony area incubated for 3 day by crystal violet staining based assay. The data set is classed as functional, cell-based. To be noted: dose 25-100 nM, DDE = dose-dependent effect.
Data set [5] deals with ALK tyrosine kinase receptor (Homo sapiens, UniProt Q9UM73). Description: Inhibition of ALK downstream signalling in human NCI-H2228 cells assessed as reduction in phosphorylated AKT level measured after 24 hrs by Western blot analysis. The data set is classed as cell-based. To be noted: dose 25-100 nM, DDE = dose-dependent effect.
In data set [6] the test system is NCI-H2228. The data set can be described thus: Induction of apoptosis in human NCI-H2228 cells assessed as orange red fluorescence at 25 to 100 nM incubated for 48 hrs by AO/EB staining based fluorescence microscopic analysis. The format is functional, cell-based. To be noted: dose 25-100 nM.
The subject of a further data set is MDA-MB-231. The data set can be described thus: cells. To be noted: Homo sapiens, MDA-MB-231, 72 h.
Data set [7] can be described thus: AUC (0 to infinity) in Sprague-Dawley rat at 2 mg/kg, iv by LC-MS/MS analysis. To be noted: in vivo. The data set is classed as ADME, organism-based. The arrangement: time infinity, dose 2 mg/kg, route iv.
The test system of data set [8] is NCI-H2228. Description: Inhibition of cell migration in human NCI-H2228 cells at 2.5 to 10 nM by inverted microscopic based cell scratch assay. The format is functional. To be noted: dose 2.5-10 nM, time 24-48 hrs, TDE = time-dependent effect.
Data set [9] has as its system NCI-H2228. Description: Induction of apoptosis in human NCI-H2228 cells assessed as total apoptotic cells at 25 nM incubated for 48 hrs by AnnexinV-FITC/propidium iodide staining based flow cytometry analysis. The data set is classed as functional. On the technique in general: Flow cytometry measures light scatter and fluorescence of single cells or particles in a stream.

Data set [10] in a line: AUC (0 to infinity) in Sprague-Dawley rat at 10 mg/kg, po by LC-MS/MS analysis. The format is ADME, organism-based. Also noted: time infinity, dose 10 mg/kg, route po. To be noted: in vivo.
The subject of another data set is A549. Description: Antiproliferative activity against EGFR positive human A549 cells assessed as inhibition of cell growth incubated for 72 hrs by MTT assay. To be noted: A549, 72 h. The data set is classed as functional, cell-based.
In data set [11] the test system is NCI-H2228. The data set can be described thus: Induction of apoptosis in human NCI-H2228 cells assessed as viable cells at 100 nM incubated for 48 hrs by AnnexinV-FITC/propidium iodide staining based flow cytometry analysis (reference value: 92.3 %). The format is functional. To be noted: read-out: Activity.
Data set [12] deals with NCI-H2228. The data set can be described thus: Inhibition of colony formation in human NCI-H2228 cells assessed as reduction in colony area at 50 nM incubated for 3 day by crystal violet staining based assay. The format is functional. To be noted: NCI-H2228, 72 h.

Chain of ALK tyrosine kinase receptor (Q9UM73 19-1620 limits assumed): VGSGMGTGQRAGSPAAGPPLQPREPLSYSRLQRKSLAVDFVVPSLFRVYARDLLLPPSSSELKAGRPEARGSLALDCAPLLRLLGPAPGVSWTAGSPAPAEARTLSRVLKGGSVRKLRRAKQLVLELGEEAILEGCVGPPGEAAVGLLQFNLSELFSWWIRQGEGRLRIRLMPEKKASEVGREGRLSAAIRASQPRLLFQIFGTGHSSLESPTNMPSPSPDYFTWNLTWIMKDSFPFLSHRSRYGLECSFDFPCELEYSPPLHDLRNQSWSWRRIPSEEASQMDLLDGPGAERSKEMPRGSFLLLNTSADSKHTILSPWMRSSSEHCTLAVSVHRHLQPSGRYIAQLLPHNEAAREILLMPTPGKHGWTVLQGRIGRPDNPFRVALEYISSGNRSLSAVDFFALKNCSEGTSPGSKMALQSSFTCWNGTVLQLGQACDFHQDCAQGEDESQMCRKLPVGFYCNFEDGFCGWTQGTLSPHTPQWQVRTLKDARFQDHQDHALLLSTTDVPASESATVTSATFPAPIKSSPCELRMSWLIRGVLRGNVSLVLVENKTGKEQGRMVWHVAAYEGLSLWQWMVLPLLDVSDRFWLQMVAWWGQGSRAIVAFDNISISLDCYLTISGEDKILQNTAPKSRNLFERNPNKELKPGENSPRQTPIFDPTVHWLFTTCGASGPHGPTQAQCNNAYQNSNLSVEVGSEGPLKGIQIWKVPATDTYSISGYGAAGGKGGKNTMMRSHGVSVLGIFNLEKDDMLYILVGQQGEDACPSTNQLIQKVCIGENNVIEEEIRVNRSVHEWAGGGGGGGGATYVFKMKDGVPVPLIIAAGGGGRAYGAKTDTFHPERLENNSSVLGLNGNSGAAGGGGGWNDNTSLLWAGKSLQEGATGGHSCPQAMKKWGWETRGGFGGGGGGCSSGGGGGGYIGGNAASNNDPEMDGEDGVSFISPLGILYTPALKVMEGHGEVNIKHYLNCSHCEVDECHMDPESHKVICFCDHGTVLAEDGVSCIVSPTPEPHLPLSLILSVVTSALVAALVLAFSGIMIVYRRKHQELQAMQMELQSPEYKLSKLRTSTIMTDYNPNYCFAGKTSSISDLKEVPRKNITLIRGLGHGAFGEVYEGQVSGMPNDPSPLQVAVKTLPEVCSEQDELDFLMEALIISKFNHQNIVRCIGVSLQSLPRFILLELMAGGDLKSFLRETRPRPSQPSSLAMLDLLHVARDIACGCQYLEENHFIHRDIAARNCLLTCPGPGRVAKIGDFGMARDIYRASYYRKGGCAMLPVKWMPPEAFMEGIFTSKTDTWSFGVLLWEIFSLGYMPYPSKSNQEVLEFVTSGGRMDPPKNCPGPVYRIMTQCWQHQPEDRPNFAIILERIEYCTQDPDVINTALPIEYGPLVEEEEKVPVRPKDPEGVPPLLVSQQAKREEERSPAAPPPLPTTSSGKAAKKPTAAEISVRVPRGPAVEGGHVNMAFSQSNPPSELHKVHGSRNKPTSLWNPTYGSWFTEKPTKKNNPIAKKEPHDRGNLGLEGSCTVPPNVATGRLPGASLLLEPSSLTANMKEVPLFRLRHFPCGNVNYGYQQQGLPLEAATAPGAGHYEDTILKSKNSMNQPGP

Consider `CNC(=O)c1ccccc1Nc1nc(Nc2ccc3c(C(=O)N(C)C)c(C)[nH]c3c2)ncc1Cl`, for which the Activity with NCI-H2228 [1] is reported as 16.5%; with NCI-H2228 [9] it was 14.23%. Moreover, the AUC(0-t) in data set [2] was found to be 1720 ng·h/mL. Moreover, the half-inhibitory concentration (IC50) at 72 h in data set [3] is greater than 10000 nM. For the same molecule, the inhibition result with NCI-H2228 [4] is “Dde”; in [5] it was “Dde”; in the data set on NCI-H2228 [8], “Tde”. The outcome with NCI-H2228 [6] was Active. Besides, the IC50 in the data set with MDA-MB-231 came out at 1880 nM; in the data set on A549, 2390 nM. Also, the AUC(0-inf) in data set [7] was 922 ng·h/mL; in data set [10] it was 1760 ng·h/mL. In addition, the viability at 0.1 µM in the data set with NCI-H2228 [11] was found to be 68.6%. Besides, in the data set on NCI-H2228 [12], the inhibition at 0.05 µM was determined as 50%.

For orientation: AUC(0-t) means the area under the concentration-time curve up to a stated or last time point. What is called IC50 is the point on the concentration scale where inhibition reaches its midpoint. Broadly, the inhibition is the percentage by which the read-out fell short of the control. Usually AUC(0-inf) stands for the area under the concentration-time curve extrapolated to infinity. Read a high AUC(0-inf) as more exposure.
